Data taken from patent US9783499B2, “Quinoline derivatives and their applications” (Shenyang Pharmaceutical University, priority 2012, dated 2017).
In brackets after ≈: the same amount, converted by molar mass.

What was measured:
Type in all cases: cell-based
[1] = tested on: H460 (human lung cancer cell); assay: In vitro anti-tumor cellular activity (MTT), H460; settings: for H460 IC50: 72 hours; for IC50: Homo sapiens, NCI-H460, 72 hours
Experimental: (§1) After pouring the cell dissociation buffer to the centrifugetube, nutrient solution was added to stop digestion. The centrifugetube were centrifuged for 10 min under 800 r/min, the liquid supernatant was removed, 5 mL culture solution was added, after mixing by pipetting the cell, took 10 μL cell suspension to the cell counting plat, and adjusted the cell concentration to 10^4/well. Among the 96 wells, A1 is empty, 100 μL of cell suspension were added to the other wells. The 96 well plates were incubated in the incubator for 24 h. […] The 96-well plates were placed in an incubator and cultivated for 72 hours. (3) The culture media containing the compounds in the 96-well plates was discarded, and the cells were washed with phosphate buffered solution (PBS) twice. Each well was added with 100 μL MTT (tetrazole) (0.5 mg/mL), and then placed in an incubator to incubate for 4 hours, after which MTT solution was discarded and 100 μL dimethyl sulfoxide was added thereto.

[2] = tested on: SMMC-7721 (hepatoma cell); assay: In vitro anti-tumor cellular activity (MTT), SMMC-7721; settings: 72 hours; for IC50: Homo sapiens
Experimental: as §1

[3] = tested on: MDA-MB-231 (human beast cancer cell); assay: In vitro anti-tumor cellular activity (MTT), MDA-MB-231; settings: 72 hours; for IC50: Homo sapiens
Experimental: as §1

[4] = tested on: U87MG (Human malignant glioblastoma cell); assay: In vitro anti-tumor cellular activity (MTT), U87MG; settings: 72 hours; for IC50: Homo sapiens, U-87 MG
Experimental: as §1

[5] = tested on: MKN-45 (human gastric carcinoma cell); assay: In vitro anti-tumor cellular activity (MTT), MKN-45; settings: 72 hours; for IC50: Homo sapiens
Experimental: as §1

[6] = tested on: HT-29 (colon cancer cell); assay: In vitro anti-tumor cellular activity (MTT), HT-29; settings: 72 hours; for IC50: Homo sapiens
Experimental: as §1

COc1cc2c(Oc3ccc(NC(=S)N/N=C/c4ccccc4)cc3F)ccnc2cc1OCCCN1CCC(C)CC1 [Example 37, (E)-N^1-(3-fluoro-4-(6-methoxy-7-(3-(4-methylpiperidin-1-yl)propoxy)quinoline-4-yloxy)phenyl)-N^4-(benzaldehyde)thiosemicarbazone]
H460 IC50 [1]: 0.089 µg/mL
SMMC-7721 IC50 [2]: 0.43 µg/mL
MDA-MB-231 IC50 [3]: 0.13 µg/mL
U87MG IC50 [4]: 0.50 µg/mL
MKN-45 IC50 [5]: 0.56 µg/mL
HT-29 IC50 [6]: 0.13 µg/mL

COc1cc2c(Oc3ccc(C=NNC(=O)Nc4ccc(Cl)c(C(F)(F)F)c4)cc3F)ccnc2cc1OCCCN1CCCCC1 [Example 46]
H460 IC50 [1]: 0.33 µg/mL
SMMC-7721 IC50 [2]: 0.69 µg/mL
MDA-MB-231 IC50 [3]: 0.25 µg/mL
U87MG IC50 [4]: 1.2 µg/mL
MKN-45 IC50 [5]: 0.23 µg/mL
HT-29 IC50 [6]: 0.45 µg/mL

COc1cc2c(Oc3ccc(NC(=O)N/N=C/c4ccccc4)cc3F)ccnc2cc1OCCCN1CCOCC1 [Example 3, (E)-N^1-(3-fluoro-4-(6-methoxy-7-(3-(morpholin-4-yl)propoxy)quinoline-4-yloxy)phenyl)-N^4-(benzaldehyde)semicarbazone]
H460 IC50 [1]: 0.11 µg/mL
SMMC-7721 IC50 [2]: 2.1 µg/mL
MDA-MB-231 IC50 [3]: 0.13 µg/mL
U87MG IC50 [4]: 0.33 µg/mL
MKN-45 IC50 [5]: 0.12 µg/mL
HT-29 IC50 [6]: 0.42 µg/mL

COc1cc2c(Oc3ccc(NC(=O)N/N=C/c4ccccc4)cc3F)ccnc2cc1OCCCN1CCCCC1 [Example 5, (E)-N^1-(3-fluoro-4-(6-methoxy-7-(3-(piperidin-1-yl)propoxy)quinoline-4-yloxy)phenyl)-N^4-(benzaldehyde)semicarbazone]
H460 IC50 [1]: 0.012 µg/mL
SMMC-7721 IC50 [2]: 0.16 µg/mL
MDA-MB-231 IC50 [3]: 0.010 µg/mL
U87MG IC50 [4]: 0.19 µg/mL
MKN-45 IC50 [5]: 0.012 µg/mL
HT-29 IC50 [6]: 0.0088 µg/mL

N.N.[Cl][Pt][Cl] [Cisplatin, reference compound]
H460 IC50 [1]: 0.23 µg/mL
SMMC-7721 IC50 [2]: 0.90 µg/mL
MDA-MB-231 IC50 [3]: 0.46 µg/mL
U87MG IC50 [4]: 0.19 µg/mL
MKN-45 IC50 [5]: 0.68 µg/mL
HT-29 IC50 [6]: 1.0 µg/mL

COc1cc2c(Oc3ccc(NC(=S)N/N=C/c4ccccc4)cc3F)ccnc2cc1OCCCN1CCN(C)CC1 [Example 39, (E)-N^1-(3-fluoro-4-(6-methoxy-7-(3-(4-methyl-1-piperazinyl)propoxy)quinoline-4-yloxy)phenyl)-N^4-(benzaldehyde)thiosemicarbazone]
H460 IC50 [1]: 1.1 µg/mL
SMMC-7721 IC50 [2]: 1.7 µg/mL
MDA-MB-231 IC50 [3]: 0.97 µg/mL
U87MG IC50 [4]: 1.6 µg/mL
MKN-45 IC50 [5]: 0.59 µg/mL
HT-29 IC50 [6]: 0.94 µg/mL

COc1cc2c(Oc3ccc(/C=N/NC(=S)Nc4cccc(Br)c4)cc3F)ccnc2cc1OCCCN1CCOCC1 [Example 65, (E)-N^1-(3-bromophenyl)-N^4-(3-fluoro-4-(6-methoxy-7-(3-(morpholin-4-yl)propoxy)quinoline-4-yloxy)benzaldehyde)thiosemicarbazone]
H460 IC50 [1]: 2.4 µg/mL
SMMC-7721 IC50 [2]: 2.8 µg/mL
MDA-MB-231 IC50 [3]: 2.1 µg/mL
U87MG IC50 [4]: 3.4 µg/mL
MKN-45 IC50 [5]: 4.8 µg/mL
HT-29 IC50 [6]: 1.9 µg/mL

COc1cccc(/C=N/NC(=O)Nc2ccc(Oc3ccnc4cc(OCCCN5CCC(C)CC5)c(OC)cc34)c(F)c2)c1 [Example 7]
H460 IC50 [1]: 0.0012 µg/mL
SMMC-7721 IC50 [2]: 0.13 µg/mL
MDA-MB-231 IC50 [3]: 0.011 µg/mL
U87MG IC50 [4]: 0.10 µg/mL
MKN-45 IC50 [5]: 0.0021 µg/mL
HT-29 IC50 [6]: 0.0006 µg/mL

(E)-N^1-(3-fluoro-4-(6-methoxy-7-(3-(4-methylpiperidin-1-yl)propoxy)quinoline-4-yloxy)phenyl)-N^4-(2-chloro-4-fluorobenzaldehyde)semicarbazone [Example 13]
H460 IC50 [1]: 0.097 µg/mL
SMMC-7721 IC50 [2]: 0.29 µg/mL
MDA-MB-231 IC50 [3]: 0.16 µg/mL
U87MG IC50 [4]: 0.33 µg/mL
MKN-45 IC50 [5]: 0.27 µg/mL
HT-29 IC50 [6]: 0.16 µg/mL

COc1cc2c(Oc3ccc(C=NNC(=O)Nc4cccc(Br)c4)cc3F)ccnc2cc1OCCCN1CCOCC1 [Example 54, (E)-N^1-(3-bromophenyl)-N^4-(3-fluoro-4-(6-methoxy-7-(3-(morpholin-4-yl)propoxy)quinoline-4-yloxy)benzaldehyde)semicarbazone]
H460 IC50 [1]: 1.5 µg/mL
SMMC-7721 IC50 [2]: 2.7 µg/mL
MDA-MB-231 IC50 [3]: 0.96 µg/mL
U87MG IC50 [4]: 1.8 µg/mL
MKN-45 IC50 [5]: 2.0 µg/mL
HT-29 IC50 [6]: 1.3 µg/mL

(E)-N^1-phenyl-N^4-(3-fluoro-4-(6-methoxy-7-(3-(4-methylpiperidin-1-yl)propoxy)quinoline-4-yloxy)benzaldehyde)thiosemicarbazone [Example 63]
H460 IC50 [1]: 0.33 µg/mL
SMMC-7721 IC50 [2]: 0.64 µg/mL
MDA-MB-231 IC50 [3]: 0.14 µg/mL
U87MG IC50 [4]: 1.0 µg/mL
MKN-45 IC50 [5]: 0.73 µg/mL
HT-29 IC50 [6]: 0.50 µg/mL

COc1cc2c(Oc3ccc(N(/N=C/c4cc(C)c(O)c(C)c4)C(N)=O)cc3F)ccnc2cc1OCCCN1CCOCC1 [Example 27, (E)-N^1-(3-fluoro-4-(6-methoxy-7-(3-(morpholin-4-yl)propoxy)quinoline-4-yloxy)phenyl)-N^4-(3,5-dimethyl-4-hydroxybenzaldehyde)semicarbazone]
IC50 [1]: 1.3 µg/mL (≈ 2.1 µM)
IC50 [2]: 0.53 µg/mL (≈ 0.858 µM)
IC50 [3]: 0.96 µg/mL (≈ 1.55 µM)
IC50 [4]: 1.4 µg/mL (≈ 2.27 µM)
IC50 [5]: 0.2 µg/mL (≈ 0.324 µM)
IC50 [6]: 0.59 µg/mL (≈ 0.955 µM)

COc1cc2c(Oc3ccc(N(/N=C/c4c(O)ccc5ccccc45)C(N)=O)cc3F)ccnc2cc1OCCCN1CCC(C)CC1 [Example 21, (E)-N^1-(3-fluoro-4-(6-methoxy-7-(3-(4-methylpiperidin-1-yl)propoxy)quinoline-4-yloxy)phenyl)-N^4-(2-hydroxy-1-naphthaldehyde)semicarbazone]
IC50 [1]: 0.16 µg/mL (≈ 0.245 µM)
IC50 [2]: 0.98 µg/mL (≈ 1.5 µM)
IC50 [3]: 0.087 µg/mL (≈ 0.133 µM)
IC50 [4]: 0.89 µg/mL (≈ 1.37 µM)
IC50 [5]: 0.1 µg/mL (≈ 0.153 µM)
IC50 [6]: 0.065 µg/mL (≈ 0.0997 µM)

(E)-N^1-(3-fluoro-4-(6-methoxy-7-(3-(piperidin-1-yl)propoxy)quinoline-4-yloxy)phenyl)-N^4-(2,4-dichlorobenzaldehyde)thiosemicarbazone [Example 41]
H460 IC50 [1]: 0.097 µg/mL
SMMC-7721 IC50 [2]: 0.66 µg/mL
MDA-MB-231 IC50 [3]: 0.088 µg/mL
U87MG IC50 [4]: 0.54 µg/mL
MKN-45 IC50 [5]: 0.10 µg/mL
HT-29 IC50 [6]: 0.13 µg/mL

COc1cc2c(Oc3ccc(NC(=O)N/N=C/c4ccc(F)cc4)cc3F)ccnc2cc1OCCCN1CCC(C)CC1 [Example 10, (E)-N^1-(3-fluoro-4-(6-methoxy-7-(3-(4-methylpiperidin-1-yl)propoxy)quinoline-4-lyoxy)phenyl)-N^4-(4-fluorobenzaldehyde)semicarbazone]
H460 IC50 [1]: 0.0092 µg/mL
SMMC-7721 IC50 [2]: 0.16 µg/mL
MDA-MB-231 IC50 [3]: 0.011 µg/mL
U87MG IC50 [4]: 0.019 µg/mL
MKN-45 IC50 [5]: 0.038 µg/mL
HT-29 IC50 [6]: 0.0015 µg/mL

COc1cc2c(Oc3ccc(NC(=O)N/N=C/c4ccccc4)cc3F)ccnc2cc1OCCCN1CCC(C)CC1 [Example 2, (E)-N^1-(3-fluoro-4-(6-methoxy-7-(3-(4-methylpiperidin-1-yl)propoxy)quinoline-4-yloxy)phenyl)-N^4-(benzaldehyde)semicarbazone]
H460 IC50 [1]: 0.15 µg/mL
SMMC-7721 IC50 [2]: 0.43 µg/mL
MDA-MB-231 IC50 [3]: 0.12 µg/mL
U87MG IC50 [4]: 0.31 µg/mL
MKN-45 IC50 [5]: 0.18 µg/mL
HT-29 IC50 [6]: 0.17 µg/mL

COc1cc2c(Oc3ccc(NC(=O)NN=Cc4ccc(F)cc4Cl)cc3F)ccnc2cc1OCCCN1CCOCC1 [Example 14, (E)-N^1-(3-fluoro-4-(6-methoxy-7-(3-(morpholin-4-yl)propoxy)quinoline-4-yloxy)phenyl)-N^4-(2-chloro-4-fluorobenzaldehyde)semicarbazone]
H460 IC50 [1]: 1.2 µg/mL
SMMC-7721 IC50 [2]: 1.5 µg/mL
MDA-MB-231 IC50 [3]: 0.90 µg/mL
U87MG IC50 [4]: 1.4 µg/mL
MKN-45 IC50 [5]: 0.65 µg/mL
HT-29 IC50 [6]: 0.81 µg/mL

COc1cc2c(Oc3ccc(N(/N=C/c4ccc(F)cc4)C(N)=S)cc3F)ccnc2cc1OCCCN1CCOCC1 [Example 45, (E)-N^1-(3-fluoro-4-(6-methoxy-7-(3-(morpholin-4-yl)propoxy)quinoline-4-yloxy)phenyl)-N^4-(4-fluorobenzaldehyde)thiosemicarbazone]
IC50 [1]: 0.11 µg/mL (≈ 0.181 µM)
IC50 [2]: 1 µg/mL (≈ 1.65 µM)
IC50 [3]: 0.17 µg/mL (≈ 0.28 µM)
IC50 [4]: 0.9 µg/mL (≈ 1.48 µM)
IC50 [5]: 0.37 µg/mL (≈ 0.609 µM)
IC50 [6]: 0.19 µg/mL (≈ 0.313 µM)

COc1cc2c(Oc3ccc(NC(=O)NN=Cc4ccc(Cl)cc4Cl)cc3F)ccnc2cc1OCCCN1CCOCC1 [Example 20, (E)-N^1-(3-fluoro-4-(6-methoxy-7-(3-(morpholin-4-yl)propoxy)quinoline-4-yloxy)phenyl)-N^4-(2,4-dichlorobenzaldehyde)semicarbazone]
H460 IC50 [1]: 1.1 µg/mL
SMMC-7721 IC50 [2]: 6.7 µg/mL
MDA-MB-231 IC50 [3]: 1.7 µg/mL
U87MG IC50 [4]: 4.2 µg/mL
MKN-45 IC50 [5]: 1.5 µg/mL
HT-29 IC50 [6]: 0.84 µg/mL
